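Protocol summary: plate cells (96-well), add compound at 5 concentrations, incubate 48 h, interpolate endpoints linearly. The concentration for 50% growth inhibition is given as GI50.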 Calls of active or inactive are those of the source. No stated cut-off is given here; in the data, active = GI50 up to about 1.1 µM and inactive = higher.
How the values were obtained:
Test in all cases: NCI-60 cell line screen, 48 h
HOP-92 = test system: HOP-92
RPMI-8226 = test system: RPMI-8226
HOP-18 = test system: HOP-18
MOLT-4 = test system: MOLT-4
DMS-114 = test system: DMS-114
CCRF-CEM = test system: CCRF-CEM
SK-MEL-5 = test system: SK-MEL-5
SF-268 = test system: SF-268
UACC-257 = test system: UACC-257
NCI-H226 = test system: NCI-H226
U-251 = test system: U-251
SNB-75 = test system: SNB-75
EKVX = test system: EKVX
A498 = test system: A498
SN12C = test system: SN12C
NCI-H460 = test system: NCI-H460
IGROV-1 = test system: IGROV-1
DLD-1 = test system: DLD-1
HCT-15 = test system: HCT-15
SW-620 = test system: SW-620
786-0 = test system: 786-0
ACHN = test system: ACHN
A549 = test system: A549
HL-60 = test system: HL-60
OVCAR-5 = test system: OVCAR-5
SK-MEL-28 = test system: SK-MEL-28
KM12 = test system: KM12
RXF 393 = test system: RXF 393
SF-295 = test system: SF-295
K562 = test system: K562
SNB-19 = test system: SNB-19
M19-MEL = test system: M19-MEL
UACC-62 = test system: UACC-62
HOP-62 = test system: HOP-62
HCT-116 = test system: HCT-116
SR = test system: SR
LOX IMVI = test system: LOX IMVI
KM-20L2 = test system: KM-20L2
M14 = test system: M14
NCI-H23 = test system: NCI-H23
HT-29 = test system: HT-29
OVCAR-4 = test system: OVCAR-4
COLO 205 = test system: COLO 205
OVCAR-8 = test system: OVCAR-8
LXFL 529 = test system: LXFL 529
SF-539 = test system: SF-539
DMS-273 = test system: DMS-273
NCI-H522 = test system: NCI-H522
UO-31 = test system: UO-31
TK-10 = test system: TK-10
SK-MEL-2 = test system: SK-MEL-2
OVCAR-3 = test system: OVCAR-3
Malme-3M = test system: Malme-3M
SK-OV-3 = test system: SK-OV-3
SNB-78 = test system: SNB-78
XF498 = test system: XF498
HCC 2998 = test system: HCC 2998

SMILES: CCOC12SC(Nc3ccc(C)cc3)=NN1C(=S)N(C)N=C2C (configuration not stated)
- GI50 (HOP-92): > 100 µM (inactive)
- GI50 (RPMI-8226): > 100 µM (inactive)
- GI50 (HOP-18): > 100 µM (inactive)
- GI50 (MOLT-4): > 100 µM (inactive)
- GI50 (DMS-114): > 100 µM (inactive)
- GI50 (CCRF-CEM): > 100 µM (inactive)
- GI50 (SK-MEL-5): > 100 µM (inactive)
- GI50 (SF-268): > 100 µM (inactive)
- GI50 (UACC-257): > 100 µM (inactive)
- GI50 (NCI-H226): > 100 µM (inactive)
- GI50 (U-251): > 100 µM (inactive)
- GI50 (SNB-75): > 100 µM (inactive)
- GI50 (EKVX): > 100 µM (inactive)
- GI50 (A498): > 100 µM (inactive)
- GI50 (SN12C): > 100 µM (inactive)
- GI50 (NCI-H460): > 100 µM (inactive)
- GI50 (IGROV-1): > 100 µM (inactive)
- GI50 (DLD-1): > 100 µM (inactive)
- GI50 (HCT-15): > 100 µM
- GI50 (SW-620): > 100 µM (inactive)
- GI50 (786-0): > 100 µM (inactive)
- GI50 (ACHN): > 100 µM (inactive)
- GI50 (A549): > 100 µM (inactive)
- GI50 (HL-60): > 100 µM (inactive)
- GI50 (OVCAR-5): > 100 µM (inactive)
- GI50 (SK-MEL-28): > 100 µM (inactive)
- GI50 (KM12): > 100 µM (inactive)
- GI50 (RXF 393): > 100 µM (inactive)
- GI50 (SF-295): > 100 µM (inactive)
- GI50 (K562): > 100 µM (inactive)
- GI50 (SNB-19): > 100 µM (inactive)
- GI50 (M19-MEL): > 100 µM (inactive)
- GI50 (UACC-62): > 100 µM (inactive)
- GI50 (HOP-62): > 100 µM (inactive)
- GI50 (HCT-116): > 100 µM (inactive)
- GI50 (SR): > 100 µM (inactive)
- GI50 (LOX IMVI): > 100 µM (inactive)
- GI50 (KM-20L2): > 100 µM (inactive)
- GI50 (M14): > 100 µM (inactive)
- GI50 (NCI-H23): > 100 µM (inactive)
- GI50 (HT-29): > 100 µM (inactive)
- GI50 (OVCAR-4): > 100 µM (inactive)
- GI50 (COLO 205): > 100 µM (inactive)
- GI50 (OVCAR-8): > 100 µM (inactive)
- GI50 (LXFL 529): > 100 µM (inactive)
- GI50 (SF-539): > 100 µM (inactive)
- GI50 (DMS-273): > 100 µM (inactive)
- GI50 (NCI-H522): > 100 µM (inactive)

SMILES: Cc1ccccc1NC(=O)c1cc2cc(/N=N/c3ccccc3C(=O)O)ccc2oc1=O
- GI50 (RPMI-8226): 15.9 µM (inactive)
- GI50 (HOP-18): 15 µM (inactive)
- GI50 (MOLT-4): 18.7 µM (inactive)
- GI50 (DMS-114): 14.6 µM (inactive)
- GI50 (CCRF-CEM): 19.7 µM (inactive)
- GI50 (SK-MEL-5): 14.5 µM (inactive)
- GI50 (UACC-257): 10.3 µM (inactive)
- GI50 (NCI-H226): 20.8 µM (inactive)
- GI50 (U-251): 21.4 µM (inactive)
- GI50 (SNB-75): 11.5 µM (inactive)
- GI50 (UO-31): 20.6 µM (inactive)
- GI50 (EKVX): 48.6 µM (inactive)
- GI50 (SN12C): 18.6 µM (inactive)
- GI50 (NCI-H460): 21.1 µM (inactive)
- GI50 (IGROV-1): 25 µM (inactive)
- GI50 (DLD-1): 16.7 µM (inactive)
- GI50 (HCT-15): 10.6 µM
- GI50 (SW-620): 27.4 µM (inactive)
- GI50 (786-0): 27.1 µM (inactive)
- GI50 (ACHN): 33.3 µM (inactive)
- GI50 (A549): 33.4 µM (inactive)
- GI50 (TK-10): 48.2 µM (inactive)
- GI50 (HL-60): 19.5 µM (inactive)
- GI50 (SK-MEL-28): 13.5 µM (inactive)
- GI50 (KM12): 12.6 µM (inactive)
- GI50 (RXF 393): 17.4 µM (inactive)
- GI50 (SF-295): 18.5 µM (inactive)
- GI50 (K562): 23.6 µM (inactive)
- GI50 (SNB-19): > 10 µM (inactive)
- GI50 (M19-MEL): 9.38 µM (inactive)
- GI50 (UACC-62): 4.7 µM (inactive)
- GI50 (HOP-62): 21.4 µM (inactive)
- GI50 (HCT-116): 20.7 µM (inactive)
- GI50 (LOX IMVI): 16.4 µM (inactive)
- GI50 (KM-20L2): 16.9 µM (inactive)
- GI50 (M14): 16.7 µM (inactive)
- GI50 (NCI-H23): 3.11 µM (inactive)
- GI50 (HT-29): 15.2 µM (inactive)
- GI50 (COLO 205): 12.9 µM (inactive)
- GI50 (OVCAR-8): 29.6 µM (inactive)
- GI50 (SK-MEL-2): 22.8 µM (inactive)
- GI50 (OVCAR-3): 34.8 µM (inactive)
- GI50 (Malme-3M): 6.75 µM (inactive)
- GI50 (SF-539): 18 µM (inactive)
- GI50 (DMS-273): 21 µM (inactive)
- GI50 (SK-OV-3): 28.2 µM (inactive)
- GI50 (NCI-H522): 12.3 µM (inactive)

SMILES: CCC(/C=C/c1ccccc1)=N\N=C(\C=C\c1ccccc1)CC
- GI50 (RPMI-8226): > 100 µM (inactive)
- GI50 (MOLT-4): > 100 µM (inactive)
- GI50 (CCRF-CEM): > 100 µM (inactive)
- GI50 (SK-MEL-5): > 100 µM (inactive)
- GI50 (SF-268): > 100 µM (inactive)
- GI50 (UACC-257): > 100 µM (inactive)
- GI50 (NCI-H226): > 100 µM (inactive)
- GI50 (U-251): > 100 µM (inactive)
- GI50 (SNB-75): > 100 µM (inactive)
- GI50 (UO-31): > 100 µM (inactive)
- GI50 (EKVX): > 100 µM (inactive)
- GI50 (A498): > 100 µM (inactive)
- GI50 (SN12C): > 100 µM (inactive)
- GI50 (NCI-H460): > 100 µM (inactive)
- GI50 (IGROV-1): > 100 µM (inactive)
- GI50 (DLD-1): > 100 µM (inactive)
- GI50 (HCT-15): > 100 µM
- GI50 (SW-620): > 100 µM (inactive)
- GI50 (786-0): > 100 µM (inactive)
- GI50 (ACHN): > 100 µM (inactive)
- GI50 (A549): > 100 µM (inactive)
- GI50 (TK-10): > 100 µM (inactive)
- GI50 (HL-60): > 100 µM (inactive)
- GI50 (OVCAR-5): > 100 µM (inactive)
- GI50 (SK-MEL-28): > 100 µM (inactive)
- GI50 (KM12): > 100 µM (inactive)
- GI50 (SF-295): > 100 µM (inactive)
- GI50 (K562): > 100 µM (inactive)
- GI50 (SNB-19): > 100 µM (inactive)
- GI50 (M19-MEL): > 100 µM (inactive)
- GI50 (UACC-62): > 100 µM (inactive)
- GI50 (HOP-62): > 100 µM (inactive)
- GI50 (SNB-78): > 100 µM (inactive)
- GI50 (HCT-116): > 100 µM (inactive)
- GI50 (SR): > 100 µM (inactive)
- GI50 (LOX IMVI): > 100 µM (inactive)
- GI50 (XF498): > 100 µM (inactive)
- GI50 (KM-20L2): > 100 µM (inactive)
- GI50 (M14): > 100 µM (inactive)
- GI50 (NCI-H23): > 100 µM (inactive)
- GI50 (HT-29): > 100 µM (inactive)
- GI50 (OVCAR-4): > 100 µM (inactive)
- GI50 (COLO 205): > 100 µM (inactive)
- GI50 (OVCAR-8): > 100 µM (inactive)
- GI50 (HCC 2998): > 100 µM (inactive)
- GI50 (SK-MEL-2): > 100 µM (inactive)
- GI50 (OVCAR-3): > 100 µM (inactive)
- GI50 (Malme-3M): > 100 µM (inactive)
- GI50 (LXFL 529): > 100 µM (inactive)
- GI50 (DMS-273): > 100 µM (inactive)
- GI50 (SK-OV-3): > 100 µM (inactive)
- GI50 (NCI-H522): > 100 µM (inactive)

— ChEMBL document CHEMBL1201862, “PubChem BioAssay data set” (2004)
